In the supplement of paper PMC8882468:

Assays:
Experiment in all cases: CTG-3D luminescence at 96 h relative to day-0 seeding control (ratio to day 0); higher = more growth / less cytotoxicity; PDxO 3D drug screen, 96 h, CTG-3D normalised to day-0 seeding control.
HCI-002 = test system: HCI-002 (organoid from a triple-negative breast cancer xenograft)
HCI-015 = test system: HCI-015 (organoid from a triple-negative breast cancer xenograft)
HCI-017.E2 = test system: HCI-017.E2 (organoid from an ER-positive breast cancer xenograft)
HCI-023 = test system: HCI-023 (organoid from a triple-negative breast cancer xenograft)
HCI-025 = test system: HCI-025 (organoid from a breast cancer xenograft)
MDA-MB-231 = test system: MDA-MB-231

CCN(c1cc(C#CCN2CCOCC2)cc(C(=O)NCc2c(C)cc(C)[nH]c2=O)c1C)[C@H]1CC[C@H](N(C)CCOC)CC1
CTG-3D luminescence at 96 h
Conditions	12.5 pM	0.00025 µM	0.005 µM	0.1 µM	1 µM	10 µM	100 µM	625 fM
HCI-002, days in culture: 62	3.56	3.06	4.04	3.68	3.25	3.56	3.84	3.54
HCI-002, days in culture: 82	3.83	3.88	2.98	3.77	3.86	3.46	2.82	3.6
HCI-002, days in culture: 91	3.18	2.62	2.38	2.44	2.39	2.58	2.11	3.17
HCI-002, days in culture: 191	3.6	3.27	3.28	3.84	3.37	3.62	3.54	3.51
HCI-002, days in culture: 209	2.93	3.11	2.59	2.63	2.93	2.64	2.79	2.8
HCI-002, days in culture: 227	4.96	4.84	4.63	5.11	4.67	5.77	4.2	5.52
HCI-015, days in culture: 172	2.25	1.77	2.86	1.78	2.2	1.94	1.91	2.23
HCI-015, days in culture: 191	2.6	1.59	1.92	1.44	2.09	1.44	1.13	1.91
HCI-015, days in culture: 218	1.78	1.4	2	1.49	1.67	2.02	0.907	2.07
HCI-017.E2, days in culture: 85	1.88	2.36	2.01	2.07	1.45	1.61	1.9	1.77
HCI-023, days in culture: 111	1.69	1.38	1.47	1.39	1.14	1.42	0.673	2.1
HCI-023, days in culture: 128	1.51	1.63	1.57	1.99	1.77	2.02	1.09	1.5
HCI-025, days in culture: 172	2.86	2.03	3.74	2.35	2.66	1.89	2.28	2.74
HCI-025, days in culture: 209	2.08	3.04	2.37	1.7	2.53	1.47	1.54	2.18
HCI-025, days in culture: 218	1.66	1.66	1.76	1.73	1.43	2.1	1.58	1.76

CTG-3D luminescence at 96 h
Conditions	12.5 pM	0.00025 µM	0.005 µM	0.1 µM	1 µM	10 µM	100 µM	625 fM
HCI-017.E2	1.57	1.65	1.91	1.81	1.72	2.01	1.5	2.01
MDA-MB-231	4.49	4.37	4.44	4.29	4.31	4.37	4.39	4.51
